According to patent US20140343089A1, “NOREPINEPHRINE AND SELECTIVE SEROTONIN RECEPTOR BLOCKER AND USE THEREOF” (priority 2011, published 2014):

Experiments:
ICR mice [1] = assay: spontaneous activity in mice; type: in vivo; conditions: each test dose (0.1, 0.5, 1, 5 and 10 mg/kg, i.p.); 60 minutes after dosing; P>0.05 compared with negative control
Description: (§1) Animals used for experiments were adult male ICR mice weighing 18˜25 g, housed in 8 pcs/cages, regulated with a 12/12 hour light/dark cycle, maintained at a constant temperature of 23±1° C. and a humidity of 50˜60% and allowed ad libitum access to rodent chow and water. After animals were purchased from the experimental animal center and performed an adaptive housing, the experiment was allowed to start.
(§2) After animal adaptive housing, all the animals were randomly divided into three groups:
(§3) Group one: negative control group, intraperitoneally injected with 1% DMSO in physiological saline (10.0 ml/kg, i.p.);
Group two: experimental drug group, the mice were intraperitoneally injected respectively with different doses of test compound Co. 1: 0.1, 0.5, 1, 5 and 10 mg/kg, i.p., the drug was formulated in 1% DMSO in physiological saline. […]
The experiment employed Shanghai Jiliang animal behavior video analysis system, wherein the experimental environment was kept absolutely silent, when grabbing animals and administrating, movements were gentle to minimize adverse reactions of mental condition and emotion brought by external stimulus. […] The spontaneous activity box was connected to a recording apparatus and the activity conditions of mice within 30-60 minutes were recorded. The effects of drug or control substances on spontaneous activity in mice were determined.

ICR mice [2] = assay: immobility time of tail suspension in mice; type: in vivo; conditions: i.p.; for immobility time of tail suspension in mice: 60 minutes after dosing
Description: as §1, §2, §3
Group two: experimental drug group, the mice were intraperitoneally injected respectively with different doses of the test compound Co. 1: 0.1, 0.5, 1, 5 and 10 mg/kg, i.p., the drug was formulated in 1% DMSO in physiological saline;
(§4) Group three: positive drug control group, the mice were intraperitoneally injected with Desipramine (20 mg/kg, i.p., the drug was formulated in 1% DMSO in physiological saline).
The experiment employed Shanghai Jiliang animal behavior video analysis system, wherein the experimental environment was kept absolutely silent, when grabbing animals and administrating, movements were gentle to minimize adverse reactions of mental condition and emotion brought by external stimulus. 60 minutes after dosing, the site 20 mm from the tail end was fixed and the mice were hung upside-down in an activity box for 6 minutes. The immobility time in later 4 minutes was analyzed.

rPPB = type: in vitro ADME; conditions: rat plasma protein binding; read-out: rPPB % bound (converted)
hPPB = type: in vitro ADME; conditions: human plasma protein binding; read-out: hPPB % bound (converted)
In vivo rat PK = conditions: for Cmax / half-life / bioavailability: po; for half-life: read-out: In vivo rat PK T½ (p.o.) (converted); for clearance: iv, read-out: In vivo rat PK CL (i.v.); for bioavailability: read-out: In vivo rat PK F %
Text: The experiment was repeated for three times and the mean value was taken.

ICR mice [3] = assay: immobility time of forced swimming in mice; type: in vivo; conditions: i.p.
Description: as §1, §2, §3
Group two: experimental drug group, the mice were intraperitoneally injected respectively with different doses of test compound Co. 3: 0.1, 0.5, 1, 5 and 10 mg/kg, i.p., the drug was formulated in 1% DMSO in physiological saline;
as §4
The mice were placed in a large beaker with a height of about 40 cm and an internal diameter of about 19 cm, loaded with water with a temperature of 24˜25° C. inside. The water level reached 22 cm height (Porsolt et al., 1977). […] 30 minutes, or 60 minutes later, the mice were placed into a beaker loaded with water, and immobility time of animals within 5 minutes was measured. […]

[4] = from Zhao, Chinese Journal of Psychiatry, Vol. 35, No. 4; cited from earlier work
rMics binding = type: in vitro ADME; conditions: rat microsomes; read-out: rMics binding % bound (converted)
hMics binding = type: in vitro ADME; conditions: human microsomes; read-out: hMics binding % bound (converted)

| SMILES | fraction unbound (rPPB) | fraction unbound (hPPB) | Cmax (In vivo rat PK) [ng/mL] | half-life (In vivo rat PK) [min] | clearance (In vivo rat PK) [mL/min/kg] | bioavailability (In vivo rat PK) [%] | also measured |
| --- | --- | --- | --- | --- | --- | --- | --- |
| CN1C[C@@H]2c3ncccc3Oc3cc(Cl)ccc3[C@@H]2C1 [Co. 1] | 0.2 | 0.13 | 51 | 276 | – | – | spontaneous activity in mice (ICR mice [1]): no significant effect; immobility time of tail suspension in mice (ICR mice [2]; 0.1 and 0.5 mg/kg): no effect; immobility time of tail suspension in mice (ICR mice [2]; 1.0, 5.0 and 10 mg/kg, P<0.05-0.01 compared to the negative control group): significantly inhibited; inhibitory effect on the immobility time of tail suspension compared to positive drug Desipramine (ICR mice [2]; Desipramine 20 mg/kg): similar |
| CN1C[C@@H]2c3ncccc3Oc3ccccc3[C@@H]2C1 [Co. 2] | 0.63 | 0.45 | 17 | 534 | 139 | 12 | – |
| CCN1C[C@@H]2c3ncc(C)cc3Oc3cc(F)c(C)cc3[C@@H]2C1 [Co. 3] | – | – | – | – | – | – | immobility time of forced swimming in mice (ICR mice [3]; 0.5, 1.0, 5.0 and 10 mg/kg, P<0.05-0.01 compared to the negative control group): significantly extended; effect on immobility time of forced swimming compared to positive drug Desipramine (ICR mice [3]; Desipramine 20 mg/kg, P<0.05): stronger |
| c1ccc2c(c1)Cc1cccnc1N1CCNCC21 (stereo not drawn) [Demethylated mirtazapine] | – | – | – | – | – | – | share of the drug activity of mirtazapine [4]: 3%-10% |
| CN1CCN2c3ncccc3Cc3ccccc3C2C1 (stereo not drawn) [Mirtazapine, reference compound] | 0.11 | 0.2 | 30 | – | 101 | 14 | fraction unbound (rMics binding): 0.79; fraction unbound (hMics binding): 0.69 |
